SMILES strings stand for the structures. pIC50: −log10 of the molar value.

The source of these data is patent US20060069120A1, “Novel piperidine derivaties as modulators of chemokine receptor ccr5” (priority 2002, published 2006).

For the test, the target named is recombinant human CCR5 receptor (Homo sapiens, UniProt P51681). Briefly: MIP-1α radioligand binding assay (scintillation proximity). The conditions noted are these: displacement of 0.1 nM iodinated MIP-1α; membranes of Chinese hamster ovary cells expressing recombinant human CCR5; average if tested more than once. How it is done: The ability of compounds to inhibit the binding of MIP-1α was assessed by an in vitro radioligand binding assay. Membranes were prepared from Chinese hamster ovary cells which expressed the recombinant human CCR5 receptor. These membranes were incubated with 0.1 nM iodinated MIP-1α, scintillation proximity beads and various concentrations of the compounds of the invention in 96-well plates. The amount of iodinated MIP-1α bound to the receptor was determined by scintillation counting. Competition curves were obtained for compounds and the concentration of compound which displaced 50% of bound iodinated MIP-1α was calculated (IC50).
Sequence of recombinant human CCR5 receptor (P51681 whole entry): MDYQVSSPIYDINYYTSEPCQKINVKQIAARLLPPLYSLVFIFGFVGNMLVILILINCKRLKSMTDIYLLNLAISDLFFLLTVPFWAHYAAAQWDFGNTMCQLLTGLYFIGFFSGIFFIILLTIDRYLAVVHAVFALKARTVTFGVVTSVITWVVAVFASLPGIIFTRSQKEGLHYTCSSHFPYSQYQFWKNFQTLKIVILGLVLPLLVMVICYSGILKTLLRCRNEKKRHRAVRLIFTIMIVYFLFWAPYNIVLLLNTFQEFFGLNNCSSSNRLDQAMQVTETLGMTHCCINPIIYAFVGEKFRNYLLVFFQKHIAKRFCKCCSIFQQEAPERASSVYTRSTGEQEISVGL
In Table IV the results are presented as Pic50 values. A Pic50 value is the negative log (to base 10) of the IC50 result, so an IC50 of 1 μM (that is 1×10^−6M) gives a Pic50 of 6. If a compound was tested more than once then the data below is an average of the probative tests results.
By pIC50 is commonly meant the negative decadic logarithm of the IC50, by convention in mol/L. `CS(=O)(=O)c1ccc(NC(=O)CC2CCN(CCC(c3ccccc3)N3CCN(c4ccccc4)CC3)CC2)cc1` (centres unmarked) [Table I Compound 3]: the pIC50 was 7.92. With `CS(=O)(=O)N1CCC(C(CCN2CCC(CC(=O)Nc3ccc(F)cc3)CC2)c2ccccc2)CC1` (centres unmarked) [Table I Compound 6], the pIC50 is 8.25. As for `CS(=O)(=O)c1ccc(NC(=O)CC2CCN(CCC(c3ccccc3)C3CCN(C(=O)c4ccc(Cl)cc4)CC3)CC2)cc1` (centres unmarked) [Table I Compound 5], the figure is 8.88. With `CS(=O)(=O)c1ccc(CNC(=O)CCC2CCN(CCC(c3ccccc3)C3CCN(S(C)(=O)=O)CC3)CC2)cc1` (single isomer, unassigned) [Table V Compound 3], the pIC50 was 7.05. For `CS(=O)(=O)c1ccc(NC(=O)CC2CCN(CC[C@@H](c3ccccc3)c3ccc(S(C)(=O)=O)cc3)CC2)cc1` [Table IV Compound 1, (S) N-(4-methanesulphonylphenyl)-1-[3-phenyl-3-(4-methanesulphonylphenyl)-propyl]piperidin-4-yl acetamide], the negative logarithm of the IC50 (pIC50) is 9.06.
